# According to patent US20170304388A1, “NEW INDICATION OF CARDIOVASCULAR DRUGS FOR PREPARATION OF CANCER INHIBITION PHARMACEUTICAL COMPOSITION” (LAUNX BIOMEDICAL CO., LTD., priority 2014, published 2017):
# Where two headings read alike, the source gives them in different places.
# What was measured:
# Format in all cases: cell-based
# 786-O = assay: Cell viability analysis (WST-1), 786-O; settings: Homo sapiens, 786-0, 72 h, Table 4, repeated experiments, drug 10 μM, read-out: survival rate (viability) of cancer cells, 786-O
# Procedure, shortened: (§1)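 Wells receive 3000 cells, and the medium is swapped for drug at 10 μM. Seventy-two hours later, WST-1 reagent diluted 9:1 with medium is added, plates sit at 37° C for 30–90 minutes, and OD450 nm yields survival rate.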
# cancer cell lines = assay: Growth inhibitory effects on the panel of cancer cell lines; settings: count of cancer cell lines inhibited; drug 10 μM, 72 hours
# Excerpt: Subculture the different types of cancer cells.
# For cell viability analysis, the cardiovascular drugs include peripheral vasodilator reaming enhancer, angiotensin converting agent inhibitor, hypotension and shock therapeutic agent, diuretic, antiarrhythmic agent, antiarralciton drug, antihypertensive agent, anticoagulant thrombolytic agent, cardiac tonic, intravenous (hemorrhoids) therapeutic agent, are used to test the inhibition effect of cancer cell.
# BCC = assay: Cell viability analysis (WST-1), BCC; settings: BCC, 72 h, Table 4, repeated experiments, drug 10 μM, read-out: survival rate (viability) of cancer cells, BCC
# SAS = assay: Cell viability analysis (WST-1), SAS; settings: 72 h, Table 4, repeated experiments, drug 10 μM, read-out: survival rate (viability) of cancer cells, SAS
# Procedure, shortened: as §1
# [1] = tested on: MCF7 (Mammary Gland, Adenocarcinoma); assay: Cell viability analysis (WST-1), MCF7; settings: Homo sapiens, MCF7, 72 h
# [2] = tested on: HepG2 (Hepatocellular Carcinoma); assay: Cell viability analysis (WST-1), HepG2; settings: Homo sapiens, HepG2, 72 h
# T24 = assay: Cell viability analysis (WST-1), T24; settings: Homo sapiens, T-24, 72 h, Table 4, repeated experiments, drug 10 μM, read-out: survival rate (viability) of cancer cells, T24
# Procedure, shortened: as §1
# AsPC-1 = assay: Cell viability analysis (WST-1), AsPC-1; settings: Homo sapiens, ASPC1, 72 h, Table 4, repeated experiments, drug 10 μM, read-out: survival rate (viability) of cancer cells, AsPC-1
# Procedure, shortened: as §1
# [3] = tested on: HCT116 (Colorectal Carcinoma); assay: Cell viability analysis (WST-1), HCT116; settings: Homo sapiens, HCT-116, 72 h
# BxPC-3 = assay: Cell viability analysis (WST-1), BxPC-3; settings: Homo sapiens, BXPC-3, 72 h, Table 4, repeated experiments, drug 10 μM, read-out: survival rate (viability) of cancer cells, BxPC-3
# Procedure, shortened: as §1
# U2OS = assay: Cell viability analysis (WST-1), U2OS; settings: Homo sapiens, U2OS, 72 h, Table 4, repeated experiments, drug 10 μM, read-out: survival rate (viability) of cancer cells, U2OS
# Procedure, shortened: as §1
# C-33A = assay: Cell viability analysis (WST-1), C-33A; settings: Homo sapiens, C-33-A, 72 h, Table 4, repeated experiments, drug 10 μM, read-out: survival rate (viability) of cancer cells, C-33A
# Procedure, shortened: as §1
# TOV-21G = assay: Cell viability analysis (WST-1), TOV-21G; settings: Homo sapiens, TOV21G, 72 h, Table 4, repeated experiments, drug 10 μM, read-out: survival rate (viability) of cancer cells, TOV-21G
# Procedure, shortened: as §1
# [4] = tested on: H1650 (Lung Adenocarcinoma); assay: Cell viability analysis (WST-1), H1650; settings: Homo sapiens, NCI-H1650, 72 h
# [5] = tested on: AGS (Gastric Adenocarcinoma); assay: Cell viability analysis (WST-1), AGS; settings: 72 h
# [6] = tested on: MKN-45 (Gastric Adenocarcinoma); assay: Cell viability analysis (WST-1), MKN-45; settings: Homo sapiens, MKN-45, 72 h
# [7] = tested on: PC3 (Prostate Adenocarcinoma); assay: Cell viability analysis (WST-1), PC3; settings: 72 h
# [8] = tested on: A375 (Amelanotic Melanoma); assay: Cell viability analysis (WST-1), A375; settings: Homo sapiens, A-375, 72 h
# Hep3B = assay: Cell viability analysis (WST-1), Hep3B; settings: Homo sapiens, Hep3B, 72 h, Table 4, repeated experiments, drug 10 μM, read-out: survival rate (viability) of cancer cells, Hep3B
# Procedure, shortened: as §1
smiles,measurement,setting,value
"CCC(C)(C)C(=O)O[C@H]1C[C@@H](C)C=C2C=C[C@H](C)[C@H](CC[C@@H]3C[C@@H](O)CC(=O)O3)[C@H]21 [Simvastatin (Zocor), Simvastatin]",viability at 10 µM,786-O,87.8%
same,Numbers of inhibitory effect on cancer cell line,cancer cell lines,0
same,viability at 10 µM,BCC,57.4%
same,viability at 10 µM,SAS,83.9%
same,viability at 10 µM,"[1]; Table 3, drug 10 μM, WST-1, OD450 nm, read-out: survival rate (viability) of cancer cells, MCF7",81.5%
same,viability at 10 µM,"[1]; Table 4, repeated experiments, drug 10 μM, WST-1, read-out: survival rate (viability) of cancer cells, MCF-7",88.8%
same,viability at 10 µM,"[2]; Table 3, drug 10 μM, WST-1, OD450 nm, read-out: survival rate (viability) of cancer cells, HepG2",113%
same,viability at 10 µM,"[2]; Table 4, repeated experiments, drug 10 μM, WST-1, read-out: survival rate (viability) of cancer cells, HepG2",124%
same,viability at 10 µM,T24,89.6%
same,viability at 10 µM,AsPC-1,78.2%
same,viability at 10 µM,"[3]; Table 3, drug 10 μM, WST-1, OD450 nm, read-out: survival rate (viability) of cancer cells, HCT116 (WT)",124%
same,viability at 10 µM,"[3]; Table 4, repeated experiments, drug 10 μM, WST-1, read-out: survival rate (viability) of cancer cells, HCT116",83.2%
same,viability at 10 µM,BxPC-3,81.8%
same,viability at 10 µM,U2OS,65.6%
same,viability at 10 µM,C-33A,112%
same,viability at 10 µM,TOV-21G,63.6%
same,viability at 10 µM,"[4]; Table 3, drug 10 μM, WST-1, OD450 nm, read-out: survival rate (viability) of cancer cells, H1650",115%
same,viability at 10 µM,"[4]; Table 4, repeated experiments, drug 10 μM, WST-1, read-out: survival rate (viability) of cancer cells, H1650",79.8%
same,viability at 10 µM,"[5]; Table 3, drug 10 μM, WST-1, OD450 nm, read-out: survival rate (viability) of cancer cells, AGS",85.6%
same,viability at 10 µM,"[5]; Table 4, repeated experiments, drug 10 μM, WST-1, read-out: survival rate (viability) of cancer cells, AGS",81%
same,viability at 10 µM,"[6]; Table 3, drug 10 μM, WST-1, OD450 nm, read-out: survival rate (viability) of cancer cells, MKN-45",79.4%
same,viability at 10 µM,"[6]; Table 4, repeated experiments, drug 10 μM, WST-1, read-out: survival rate (viability) of cancer cells, MKN-45",92.6%
same,viability at 10 µM,"[7]; Table 3, drug 10 μM, WST-1, OD450 nm, read-out: survival rate (viability) of cancer cells, PC3",91.8%
same,viability at 10 µM,"[7]; Table 4, repeated experiments, drug 10 μM, WST-1, read-out: survival rate (viability) of cancer cells, PC-3",92.8%
same,viability at 10 µM,"[8]; Table 3, drug 10 μM, WST-1, OD450 nm, lower viability = better inhibition, read-out: survival rate (viability) of cancer cells, A375",114%
same,viability at 10 µM,"[8]; Table 4, repeated experiments, drug 10 μM, WST-1, read-out: survival rate (viability) of cancer cells, A375",78.6%
same,viability at 10 µM,Hep3B,114%
